# Measurements reported in patent US20260335398A1, “METHODS FOR TREATING PANCREATIC CANCER WITH A COMBINATION OF DES-METHYL PATEAMINE A AND A CLASS I HDAC INHIBITOR” (Baylor University, priority 2023, published 2026).
# How the values were obtained:
# SNRPN locus = experiment: DRIP-qPCR R-loop accumulation at negative locus SNRPN (FIG. 10A); format: cell-based; conditions: MIA PaCa-2, 6+3 hours
# Experimental: (§1) FIG. 10A illustrates the fold increase in the percent of input values in DRIP-qPCR for the VGF, HBA2, and SNRPN loci in MIA PaCa-2 cells treated with or without the combination or single agents. Genomic DNA was treated in vitro with or without RNaseH1 before immunoprecipitation using S9.6 antibody. Treatment was for 6+3 hours (i.e., 6-hour romidepsin followed by 3-hour washout with 2 nM DMPatA (combo) or without). Statistical significance was determined by 3-way ANOVA, ***p value<0.001. This experiment confirms the formation of R-loops at the investigated gene loci.
# (§2) Romidepsin-induced histone hyperacetylation leads to the accumulation of R-loops that can increase genome instability. Because treatment of cells with the combination increased global transcription and led to persistence of histone hyperacetylation, it was postulated the treatment could similarly enhance the formation of R-loops and contribute to cell death. R-loop accumulation was further confirmed using DRIP-qPCR. […]
# (§3) DRIP assay was performed according to the method previously described (Sanz L A, Chédin F. High-resolution, strand-specific R-loop mapping via S9. 6-based DNA-RNA immunoprecipitation and high-throughput sequencing. Nature protocols. 2019; 14(6):1734). […] Quantitative PCR was performed at the R-loop positive loci VGF and HBA2 genes and R-loop negative locus SNRPN gene with the primers listed in Table 1.
# VGF and HBA2 loci = experiment: DRIP-qPCR R-loop accumulation at VGF and HBA2 loci (FIG. 10A); format: cell-based; conditions: MIA PaCa-2, 6+3 hours
# Experimental: as §1, §2, §3
# KLM and MIA PaCa-2 cells = experiment: Nascent RNA synthesis by EU labeling (FIG. 9B); format: cell-based; conditions: total 18 h, 5-EU incorporation
# Experimental: FIG. 9B left panel compares EU-labeled nascent RNA and (Hoechst counterstain) in KLM cells treated with combination and single agents. Scale bar: 1 μm. FIG. 9B right panels present quantification of fluorescence intensities of nascent RNA synthesis in both KLM and MIA PaCa-2 cell lines. Statistical significance was determined by one-way ANOVA using Tukey multiple comparison's test, ****p value<0.0001, **p value<0.0002, **p value<0.002.
# This apparent hypertranscription observed with the combination, was confirmed by the increase in nascent RNA output above the level of normal cells, following treatment for a total of 18 hours (i.e., 6-hour romidepsin followed by 12-hour washout with or without 2 nM DMPatA), quantified using incorporation of the modified RNA precursor 5-EU. […] Because HDAC inhibitors cause histone hyperacetylation and having observed the increase in gene expression following treatment with the combination, the impact of the combination on histone acetylation was assessed.
# To detect changes in the global RNA transcription we used the Click-iT RNA Alexa Fluor 594 Imaging Kit (Invitrogen, #C10330). Briefly, cells were cultured in complete media and pulsed for 60 min with alkyne-modified nucleoside, 5-ethynyl uridine (EU) at a final concentration of 1 mM. […]
# MIA PaCa-2 xenograft = MIA PaCa-2 xenograft model of PDAC, tumor growth (FIG. 2A); format: in vivo, athymic nude mice; conditions: IP; romidepsin 0.75 mg/kg, DMPatA 0.075 mg/kg; once every four days 2 weeks, then every seven days 5-6 weeks
# Text: FIGS. 2A and 2B illustrate the results of a MIA PaCa-2 xenograft model of PDAC in male athymic nude mice. FIG. 2A compares tumor growth (mm^3) in mice treated with the indicated concentrations of combination, romidepsin and DMPatA using IP route and vehicles described in the materials and methods section below. FIG. 2B compares body weight (g) of mice treated with the combination and single agents following treatment. FIGS. 2C and 2D compare quantification of H3K9ac and c-MYC antibodies. Frozen sections from MIA PaCa-2 xenograft tumor tissues were subjected to immunohistochemical analysis using antibodies against H3K9ac, and c-MYC. Fluorescence images were captured using fluorescent microscopy and the fluorescent signal from H3K9ac and c-MYC antibodies were quantified. To quantify fluorescence intensity at least 500 cells per condition were measured for each antibody at 40× magnification. The median of the signal intensity is shown. Statistical significance was determined by one-way ANOVA using Tukey multiple comparisons test, ****p value<0.0001.
# Animal studies were performed according to Institutional Animal Care and Use Committee (IACUC) protocol number AC-AABD2601. Following the establishment of initial dose levels for individual drugs, efficacy of the combination and single agents in a MIA PaCa-2 xenograft model was assessed at a tolerable dose and schedule. […]
compound,measurement,setting,value
C/C=C1\NC(=O)[C@H]2CSSCC/C=C/[C@H](CC(=O)N[C@H](C(C)C)C(=O)N2)OC(=O)[C@H](C(C)C)NC1=O [romidepsin],R-loop accumulation at SNRPN,SNRPN locus,no accumulation of R-loops
same,"R-loop accumulation (percent of input, DRIP-qPCR)",VGF and HBA2 loci,significant increase in the percent of input
same,nascent RNA (mRNA) synthesis,KLM and MIA PaCa-2 cells,increase in RNA synthesis
same,tumor volume,MIA PaCa-2 xenograft,regression in tumor volume
